This assay deals with recombinant NL4-3 virus (Renilla luciferase) in MT-2 cells. Nature of the assay: HIV cell culture assay (antiviral activity, luciferase readout in infected MT-2 cells). Type of assay: cell-based. To be noted: Renilla. An outline of the steps: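 EC50 derived via median-effect equation from luciferase activity in MT-2 cells after 4–5 day infection, compound serially diluted. Virus: recombinant NL4-3 with Renilla luciferase replacing part of nef, made in 293T cells.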

The mark [1] stands for this setting: NL43, read-out: Activity, antiviral activity class, recombinant NL4-3 Renilla luciferase virus in MT-2 cells.
Setting [2] is: NL43, recombinant NL4-3 Renilla luciferase virus in MT-2 cells.

pEC50: −log10 of the molar value. Like-named read-outs stand apart in the source and are kept apart here. Some results are limits rather than exact numbers.

For the compound `CN(C(=O)[C@H](Cc1ccccc1)NC(=O)NS(=O)(=O)C1(Cc2ccccc2)CC1)c1ccc2c(c1)OCO2` [Example 107, (S)—N-(benzo[d][1,3]dioxol-5-yl)-2-(3-((1-benzylcyclopropyl)sulfonyl)ureido)-N-methyl-3-phenylpropanamide], the pEC50 under setting [1] is 5.00 to 6.00.
On the same count and under the same terms, with `CN(C(=O)[C@H](Cc1ccccc1)NC(=O)NS(=O)(=O)Cc1ccc(Cl)c(Cl)c1)c1ccc2c(c1)OCO2` [Example 102, (S)—N-(benzo[d][1,3]dioxol-5-yl)-2-(3-((3,4-dichlorobenzyl)sulfonyl)ureido)-N-methyl-3-phenylpropanamide] the figure was 6.00 to 7.00.
Still for that read-out and setting: with `COc1ccc(N(C)C(=O)[C@H](Cc2ccccc2)NC(=O)NS(=O)(=O)c2c(C)n(C)c3ccccc23)cc1` [Example JB-85, (S)-2-(3-((1,2-dimethyl-1H-indol-3-yl)sulfonyl)ureido)-N-(4-methoxyphenyl)-N-methyl-3-phenylpropanamide] the figure was 6.00 to 7.00.
Same read-out and setting: with `CCCc1ccccc1S(=O)(=O)NC(=O)N[C@@H](Cc1ccccc1)C(=O)N(C)c1ccc2c(c1)OCO2` [Example 145, (S)—N-(benzo[d][1,3]dioxol-5-yl)-N-methyl-3-phenyl-2-(3-((2-propylphenyl)sulfonyl)ureido)propanamide] the figure was 6.00 to 7.00; with `CN(C(=O)[C@H](Cc1ccccc1)NC(=O)NS(=O)(=O)c1ccccc1-c1ccsc1)c1ccc2c(c1)OCO2` [Example 132, (S)—N-(benzo[d][1,3]dioxol-5-yl)-N-methyl-3-phenyl-2-(3-((2-(thiophen-3-yl)phenyl)sulfonyl)ureido)propanamide], 4.00 to 5.00.
Regarding `CCN(C(=O)[C@H](Cc1ccccc1)NC(=O)NS(=O)(=O)c1ccccc1C)c1ccc(OC)c(C)c1` [Example CA-78, (S)—N-ethyl-N-(4-methoxy-3-methylphenyl)-3-phenyl-2-(3-(o-tolylsulfonyl)ureido)propanamide], the pEC50 by setting is: under setting [1], 6.00 to 7.00; under setting [2], 6.92.
For the compound `Cc1ccccc1S(=O)(=O)NC(=O)N[C@@H](Cc1ccccc1)C(=O)N(C)c1ccc2ncncc2c1` [Example CA-96, (S)—N-methyl-3-phenyl-N-(quinazolin-6-yl)-2-(3-(o-tolylsulfonyl)ureido)propanamide], the pEC50 under setting [1] is 6.00 to 7.00.
As to `COc1ccc(N(CCc2ccccc2)C(=O)[C@H](Cc2ccccc2)NC(=O)NS(=O)(=O)c2ccccc2C)cc1` [Example ZY-5, (S)—N-(4-methoxyphenyl)-N-phenethyl-3-phenyl-2-(3-(o-tolylsulfonyl)ureido)propanamide], the pEC50 by setting is: under setting [1], 4.00 to 5.00; under setting [2], 4.94.
On the same counts, the results for `CN(C(=O)[C@H](Cc1ccccc1)NC(=O)NS(=O)(=O)CCCc1ccccc1)c1ccc2c(c1)OCO2` [Example 25, (S)—N-(benzo[d][1,3]dioxol-5-yl)-N-methyl-3-phenyl-2-(3-((3-phenylpropyl)sulfonyl)ureido)propanamide] are 6.00 to 7.00 and 6.03.
The like results for `CN(C(=O)[C@H](Cc1cc(F)cc(F)c1)NC(=O)NS(=O)(=O)c1ccccc1Cl)c1ccc2scnc2c1` [Example ZY-13, (S)—N-(benzo[d]thiazol-5-yl)-2-(3-((2-chlorophenyl)sulfonyl)ureido)-3-(3,5-difluorophenyl)-N-methylpropanamide] were, in that order, over 7.00 and 7.52.
As to `CN(C(=O)[C@H](Cc1ccccc1)NC(=O)NS(=O)(=O)c1cccc(Cl)c1)c1ccc2c(c1)OCO2` [Example 3, (S)—N-(benzo[d][1,3]dioxol-5-yl)-2-(3-((3-chlorophenyl)sulfonyl)ureido)-N-methyl-3-phenylpropanamide], under setting [1], the pEC50 is 6.00 to 7.00.
As to `CCN(C(=O)[C@H](Cc1ccccc1)NC(=O)NS(=O)(=O)c1cccc(Cl)c1Cl)c1ccc(OC)cc1` [Example 119, (S)-2-(3-((2,3-dichlorophenyl)sulfonyl)ureido)-N-ethyl-N-(4-methoxyphenyl)-3-phenylpropanamide], the pEC50 under setting [1] was over 7.00.
For `CCN(C(=O)[C@H](Cc1ccccc1)NC(=O)NS(=O)(=O)c1ccccc1C)c1ccc2c(c1)CCCO2` [Example CA-81, (S)—N-(chroman-6-yl)-N-ethyl-3-phenyl-2-(3-(o-tolylsulfonyl)ureido)propanamide], the pEC50 is over 7.00 under setting [1] and 7.40 under setting [2].
For `Cc1ccccc1S(=O)(=O)NC(=O)N[C@@H](Cc1ccccc1)C(=O)N(C)c1ccc2ncccc2c1` [Example CA-71, (S)—N-methyl-3-phenyl-N-(quinolin-6-yl)-2-(3-(o-tolylsulfonyl)ureido)propanamide], under setting [1], the pEC50 is over 7.00.
`CC(=O)Nc1ccc(N(C)C(=O)[C@H](Cc2ccccc2)NC(=O)NS(=O)(=O)c2ccccc2C)cc1O` [Example CA-85, (S)—N-(4-acetamido-3-hydroxyphenyl)-N-methyl-3-phenyl-2-(3-(o-tolylsulfonyl)ureido)propanamide]: under setting [1], the pEC50 is 5.00 to 6.00.
Same read-out and setting: with `C=C(C)c1cccc(S(=O)(=O)NC(=O)N[C@@H](Cc2ccccc2)C(=O)N(CC)c2ccc(OC)cc2)c1` [Example 139, (S)—N-ethyl-N-(4-methoxyphenyl)-3-phenyl-2-(3-((3-(prop-en-2-yl)phenyl)sulfonyl)ureido)propanamide] the figure was over 7.00.
On the same count and under the same terms, with `CN(C(=O)[C@H](Cc1ccccc1)NC(=O)NS(=O)(=O)c1ccccc1)c1cccc2ccccc12` [Example 94, (S)—N-methyl-N-(naphthalen-1-yl)-3-phenyl-2-(3-(phenylsulfonyl)ureido)-propanamide] the figure was 4.00 to 5.00.
On to `Cc1ccccc1S(=O)(=O)NC(=O)N[C@H](C(=O)N(C)c1ccc2c(c1)OCO2)[C@H]1CCc2ccccc21` [Example 84, (S)—N-(benzo[d][1,3]dioxol-5-yl)-2-((S)-2,3-dihydro-1H-inden-1-yl)-N-methyl-2-(3-(o-tolylsulfonyl)ureido)acetamide], for which the pEC50 is 4.00 to 5.00 under setting [1] and 4.66 under setting [2].
With `Cc1ccccc1N(C)C(=O)[C@H](Cc1ccccc1)NC(=O)NS(=O)(=O)c1ccccc1C` [Example CA-69, (S)—N-methyl-3-phenyl-N-(o-tolyl)-2-(3-(o-tolylsulfonyl)ureido)propanamide], under setting [1], the pEC50 was 5.00 to 6.00.
The same measure, in the same setting: with `COc1ccc(N(C)C(=O)[C@H](Cc2cc(F)cc(F)c2)NC(=O)NS(=O)(=O)c2ccccc2F)cc1` [Example 204, (S)-3-(3,5-difluorophenyl)-2-(3-((2-fluorophenyl)sulfonyl)ureido)-N-(4-methoxyphenyl)-N-methylpropanamide] the figure was 6.00 to 7.00.
On the same count and under the same terms, with `COc1ccc(N(C)C(=O)[C@H](CC2CCCCC2)NC(=O)NS(=O)(=O)c2ccccc2C)cc1` [Example 195, (S)-3-cyclohexyl-N-(4-methoxyphenyl)-N-methyl-2-(3-(o-tolylsulfonyl)ureido)propanamide] the figure was 5.00 to 6.00.
`C=CCCOc1cccc(C[C@H](NC(=O)NS(=O)(=O)c2ccccc2C=C)C(=O)N(C)c2ccc(OC)cc2)c1` [Example 213, (S)-3-(3-(but-3-en-1-yloxy)phenyl)-N-(4-methoxyphenyl)-N-methyl-2-(3-((2-vinylphenyl)sulfonyl)ureido)propanamide]: the pEC50 was 5.00 to 6.00 under setting [1] and 5.29 under setting [2].
Consider `CN(C(=O)[C@H](Cc1ccccc1)NC(=O)NS(=O)(=O)c1c(F)cccc1F)c1ccc2c(c1)OCO2` [Example 98, (S)—N-(benzo[d][1,3]dioxol-5-yl)-2-(3-((2,6-difluorophenyl)sulfonyl)ureido)-N-methyl-3-phenylpropanamide], for which the pEC50 is over 7.00 under setting [1] and 7.05 under setting [2].

These data come from patent publication US10035760B2, “Inhibitors of human immunodeficiency virus replication” (priority 2013, dated 2018).
